Data set [1] relates to Hepatitis C virus. In words: microbe, parasite or virus in culture. The data set is classed as functional, organism-based, Hepacivirus hominis, subtype 1a, Huh-lunet. As to conditions: Hepatitis C virus, subtype 1a, Huh-lunet, 96 h.
Description: Antiviral activity against HCV-1a infected in human Huh-lunet cells after 4 days by luciferase based replicon assay
The test system of data set [2] is Hepatitis C virus. The experiment in a line: microbe, parasite or virus in culture. The data set is classed as functional, organism-based, Hepacivirus hominis, genotype 1b, Huh-luc/neo-ET. Particulars: Hepatitis C virus, genotype 1b, Huh-luc/neo-ET, 72 h.
Description: Antiviral activity against HCV-1b infected human Huh-luc/neo-ET replicon cells after 72 hrs by luciferase based replicon assay
Data set [3] is described as follows: in vitro. Particulars: human, t1/2.
Data set [4] can be described thus: in vitro. Particulars: human.
Description: Metabolic stability in human liver microsomes assessed as compound remaining after 60 mins at 1 uM

The term EC50 denotes the concentration giving half of the maximal effect. Read a low EC50 as higher potency in that assay. What is called half-life is how long it takes for the measured level to halve. A word on the amount remaining: it is the share of the starting amount still present when the sample was taken.

On to `COc1cccc(CN2C(=O)C(C3=NS(=O)(=O)c4cc(NS(C)(=O)=O)ccc4N3)=C(O)[C@@H]3C4CCC(CC4)[C@@H]32)c1`, for which the EC50 in data set [1] amounted to 270 nM; in data set [2], 5 nM. This compound also displayed a half-life at 1 µM in data set [3] (liver microsomes) of more than 1 h. The amount remaining at 1 h, 1 µM in data set [4] (liver microsomes) worked out at 50%.
On to `CS(=O)(=O)Nc1ccc2c(c1)S(=O)(=O)NC(C1=C(O)[C@@H]3[C@@H]4CC[C@@H](C4)[C@@H]3N(Cc3ccc(F)c(F)c3)C1=O)=N2`, for which the half-maximal effective concentration (EC50) in data set [1] was found to be 110 nM; in data set [2], 13 nM. For the same compound, the half-life at 1 µM in data set [3] (liver microsomes) was more than 1 h. In addition, in data set [4] (liver microsomes), the share remaining at 1 h, 1 µM was found to be 97%.
Regarding `CS(=O)(=O)Nc1ccc2c(c1)S(=O)(=O)N=C(C1=C(O)[C@@H]3[C@H]4CC[C@H](C4)[C@@H]3N(Cc3ccc(Cl)cc3)C1=O)N2`, the concentration giving a half-maximal response (EC50) was 760 nM in data set [1] and 203 nM in data set [2]. This compound also showed a half-life at 1 µM in data set [3] (microsomes) of more than 1 h. In addition, the fraction remaining at 1 h, 1 µM in data set [4] (microsomes) stood at 84%.
The corresponding values for `CS(=O)(=O)Nc1ccc2c(c1)S(=O)(=O)N=C(C1=C(O)[C@@H]3[C@H]4CC[C@H](C4)[C@@H]3N(Cc3ccc(F)cc3Cl)C1=O)N2` are 33 nM, 5 nM, more than 1 h and 98%.
In the same order, the values of `CS(=O)(=O)Nc1ccc2c(c1)S(=O)(=O)N=C(C1=C(O)[C@@H]3[C@H]4CC[C@H](C4)[C@@H]3N(Cc3ccc(F)cc3F)C1=O)N2` are 290 nM, 10 nM, more than 1 h and 100%.
Take `CS(=O)(=O)Nc1ccc2c(c1)S(=O)(=O)N=C(C1=C(O)[C@@H]3C4CCC(CC4)[C@@H]3N(Cc3ccccc3Cl)C1=O)N2`: the EC50 in data set [1] was 660 nM; in data set [2], 17 nM. In data set [3] (liver microsomes), this compound registered a half-life at 1 µM of more than 1 h. Moreover, the amount remaining at 1 h, 1 µM in data set [4] (liver microsomes) is 100%.
In the case of `CS(=O)(=O)Nc1ccc2c(c1)S(=O)(=O)N=C(C1=C(O)[C@@H]3C4CCC(CC4)[C@@H]3N(Cc3cccs3)C1=O)N2`, the half-maximal effective concentration (EC50) in data set [1] is 120 nM; in data set [2] it was 6 nM. In addition, the half-life at 1 µM in data set [3] (liver microsomes) is 0.85 h.
For the compound `CS(=O)(=O)Nc1ccc2c(c1)S(=O)(=O)N=C(C1=C(O)[C@@H]3C4CCC(CC4)[C@@H]3N(Cc3ccc(F)c(Cl)c3)C1=O)N2`, the results for the EC50 in data set [1] and in data set [2] were 19 nM and 2 nM, respectively. Further, the half-life at 1 µM in data set [3] (liver microsomes) was more than 1 h. Also, in data set [4] (liver microsomes), the fraction remaining at 1 h, 1 µM worked out at 100%.
In the same order, the values of `CS(=O)(=O)Nc1ccc2c(c1)S(=O)(=O)N=C(C1=C(O)[C@@H]3C4CCC(CC4)[C@@H]3N(Cc3ccc(F)cc3Cl)C1=O)N2` are 25 nM, 1 nM, more than 1 h and 100%.
Regarding `CC(C)CCN1C(=O)C(C2=NS(=O)(=O)c3cc(NS(C)(=O)=O)ccc3N2)=C(O)[C@@H]2[C@H]3CC[C@H](C3)[C@@H]21`, the 50% effective concentration (EC50) worked out at 72 nM in data set [1] and 12 nM in data set [2]. In data set [3] (liver microsomes), this compound registered a half-life at 1 µM of 0.617 h.
With `CS(=O)(=O)Nc1ccc2c(c1)S(=O)(=O)N=C(C1=C(O)[C@@H]3[C@H]4CC[C@H](C4)[C@@H]3N(Cc3ccc(F)c(Cl)c3)C1=O)N2`, the concentration giving a half-maximal response (EC50) amounted to 32 nM in data set [1] and 10 nM in data set [2]. The half-life at 1 µM in data set [3] (liver microsomes) was more than 1 h. For the same compound, the share remaining at 1 h, 1 µM in data set [4] (liver microsomes) came out at 87%.
With `CS(=O)(=O)Nc1ccc2c(c1)S(=O)(=O)N=C(C1=C(O)[C@@H]3C4CCC(CC4)[C@@H]3N(CC(F)(F)F)C1=O)N2`, the EC50 in data set [1] amounted to 60 nM; in data set [2], 4 nM. This compound also returned a half-life at 1 µM in data set [3] (microsomes) of 0.1 h.
In the same order, the values of `CC(C)(C)CCN1C(=O)C(C2=NS(=O)(=O)c3cc(NS(C)(=O)=O)ccc3N2)=C(O)[C@@H]2[C@H]3CC[C@H](C3)[C@@H]21` are 180 nM, 20 nM and 0.0667 h.
In the same order, the values of `CS(=O)(=O)Nc1ccc2c(c1)S(=O)(=O)N=C(C1=C(O)[C@@H]3C4CCC(CC4)[C@@H]3N(CC3CCCCC3)C1=O)N2` are 55 nM, 11 nM and 0.833 h.
In data set [2], `COc1cccc(CN2C(=O)C(C3=NS(=O)(=O)c4cc(NS(C)(=O)=O)ccc4N3)=C(O)[C@@H]3[C@H]4CC[C@H](C4)[C@@H]32)c1` returned a concentration for a half-maximal effect (EC50) of 70 nM. The compound also returned a half-life at 1 µM in data set [3] (liver microsomes) of more than 1 h. In addition, the fraction remaining at 1 h, 1 µM in data set [4] (liver microsomes) was found to be 61%.
Compound `CS(=O)(=O)Nc1ccc2c(c1)S(=O)(=O)N=C(C1=C(O)[C@@H]3[C@@H]4CC[C@@H](C4)[C@@H]3N(Cc3ccc(F)cc3F)C1=O)N2` yielded a concentration for a half-maximal effect (EC50) in data set [2] of 55 nM. In data set [3] (microsomes), this compound gave a half-life at 1 µM of more than 1 h. For the same compound, the fraction remaining at 1 h, 1 µM in data set [4] (microsomes) was 100%.
The compound `CS(=O)(=O)Nc1ccc2c(c1)S(=O)(=O)N=C(C1=C(O)[C@@H]3[C@H]4CC[C@H](C4)[C@@H]3N(Cc3ccccc3Cl)C1=O)N2` gave a half-maximal effective concentration (EC50) in data set [2] of 90 nM. The half-life at 1 µM in data set [3] (liver microsomes) was more than 1 h. In data set [4] (liver microsomes), this compound came in with a share remaining at 1 h, 1 µM of 100%.
For the compound `CS(=O)(=O)Nc1ccc2c(c1)S(=O)(=O)N=C(C1=C(O)[C@@H]3[C@@H]4CC[C@@H](C4)[C@@H]3N(Cc3ccc(Cl)cc3)C1=O)N2`, the response in data set [2] was half-maximal at 73 nM (EC50). The same compound showed a half-life at 1 µM in data set [3] (microsomes) of more than 1 h. In data set [4] (microsomes), the amount remaining at 1 h, 1 µM worked out at 100%.
Take `CS(=O)(=O)Nc1ccc2c(c1)S(=O)(=O)N=C(C1=C(O)[C@@H]3[C@H]4CC[C@H](C4)[C@@H]3N(Cc3ccccc3)C1=O)N2`: the EC50 in data set [2] stood at 29 nM. Further, the half-life at 1 µM in data set [3] (liver microsomes) was more than 1 h. This compound showed an amount remaining at 1 h, 1 µM in data set [4] (liver microsomes) of 80%.
In the same order, the values of `CS(=O)(=O)Nc1ccc2c(c1)S(=O)(=O)N=C(C1=C(O)[C@@H]3C4CCC(CC4)[C@@H]3N(Cc3ccccc3F)C1=O)N2` are 26 nM, more than 1 h and 81%.
In the same order, the values of `CS(=O)(=O)Nc1ccc2c(c1)S(=O)(=O)N=C(C1=C(O)[C@@H]3[C@@H]4CC[C@@H](C4)[C@@H]3N(Cc3ccc(F)c(F)c3F)C1=O)N2` are 46 nM, more than 1 h and 87%.
With `COc1cc(CN2C(=O)C(C3=NS(=O)(=O)c4cc(NS(C)(=O)=O)ccc4N3)=C(O)[C@@H]3[C@@H]4CC[C@@H](C4)[C@@H]32)ccc1F`, the concentration giving a half-maximal response (EC50) in data set [2] came to 59 nM. In data set [3] (microsomes), this compound returned a half-life at 1 µM of more than 1 h. In addition, in data set [4] (microsomes), the share remaining at 1 h, 1 µM worked out at 64%.
As for `CS(=O)(=O)Nc1ccc2c(c1)S(=O)(=O)N=C(C1=C(O)[C@@H]3[C@@H]4CC[C@@H](C4)[C@@H]3N(Cc3ccccc3F)C1=O)N2`, it took 63 nM to reach a half-maximal effect in data set [2] (EC50). The half-life at 1 µM in data set [3] (liver microsomes) is more than 1 h. Also, the fraction remaining at 1 h, 1 µM in data set [4] (liver microsomes) is 83%.
`Cc1ccc(CN2C(=O)C(C3=NS(=O)(=O)c4cc(NS(C)(=O)=O)ccc4N3)=C(O)[C@@H]3[C@H]4CC[C@H](C4)[C@@H]32)cc1F` yielded a half-maximal effective concentration (EC50) in data set [2] of 770 nM. In data set [3] (liver microsomes), this compound came in with a half-life at 1 µM of more than 1 h. In addition, the fraction remaining at 1 h, 1 µM in data set [4] (liver microsomes) came to 78%.
In data set [2], `COc1cccc(CN2C(=O)C(C3=NS(=O)(=O)c4cc(NS(C)(=O)=O)ccc4N3)=C(O)[C@@H]3[C@@H]4CC[C@@H](C4)[C@@H]32)c1` gave an EC50 of 62 nM. The compound also returned a half-life at 1 µM in data set [3] (liver microsomes) of more than 1 h. The compound also registered a share remaining at 1 h, 1 µM in data set [4] (liver microsomes) of 83%.

The values are drawn from ChEMBL document CHEMBL1154345, “Discovery of tricyclic 5,6-dihydro-1H-pyridin-2-ones as novel, potent, and orally bioavailable inhibitors of HCV NS5B polymerase” (Bioorg Med Chem Lett, 2009).
